Patent US11453690B2, “Receptor inhibitor, pharmaceutical composition comprising same, and use thereof” (BEIJING TIDE PHARMACEUTICAL CO., LTD., priority 2018, dated 2022)

What follows are molecules tested against AT2 Receptor (AT2R) (Homo sapiens (Human), UniProt P50052) (assay: Measurement of inhibitory activity on AT2 receptor (Tag-lite HTRF, Tb-labeled AT2R cells, angiotensin receptor red agonist)). Settings: 1 h room temperature.
Type: binding
Procedure: Measurement of Inhibitory Activity on AT1 Receptor ([…])/AT2 Receptor (AT2R)
Through the following steps, the inhibitory activity of the compound on AT1R/AT2R (IC50 value) was determined:
1) An appropriate amount of 1×TLB (Tag-lite Buffer) was prepared and well mixed for use.
2) The compound was diluted by 10 times with ddH2O or DMSO. The compound was then dilute to 4 times of the working concentration with 1×TLB and mixed well for use.
3) 8600 nM Tag-lite angiotensin receptor red agonist was diluted to 12 nM (4×Kd) with 1×TLB.
4) 5 ml 1×TLB was taken into a 15 ml centrifuge tube.
5) After thawing 1 tube of Tb-labeled AT1R/AT2R cells in a 37° C. water bath, the cells were quickly transferred to the 1×TLB in step 4), mixed gently, and centrifuged at 1200 g for 5 minutes at room temperature.
6) The supernatant was aspirated gently, and the cells were resuspended and mixed in 2.7 ml 1×TLB, and then placed at room temperature until use.
7) 10 μl cells were added to all test wells, and 5 μl 4× working solution of the compound from step 2) was added to the corresponding test wells. 5 μl 4× Tag-lite angiotensin receptor red agonist well diluted in step 3) was added to all test wells.
8) After leaving the reaction plate at room temperature for 1 h, data were measured and analyzed using Envision HTRF Reader, and the half inhibitory concentration (IC50) of the compound on AT1R/AT2R was calculated with the GraphPad Prism four-parameter equation.

Chain of AT2 Receptor (AT2R) (P50052 whole entry): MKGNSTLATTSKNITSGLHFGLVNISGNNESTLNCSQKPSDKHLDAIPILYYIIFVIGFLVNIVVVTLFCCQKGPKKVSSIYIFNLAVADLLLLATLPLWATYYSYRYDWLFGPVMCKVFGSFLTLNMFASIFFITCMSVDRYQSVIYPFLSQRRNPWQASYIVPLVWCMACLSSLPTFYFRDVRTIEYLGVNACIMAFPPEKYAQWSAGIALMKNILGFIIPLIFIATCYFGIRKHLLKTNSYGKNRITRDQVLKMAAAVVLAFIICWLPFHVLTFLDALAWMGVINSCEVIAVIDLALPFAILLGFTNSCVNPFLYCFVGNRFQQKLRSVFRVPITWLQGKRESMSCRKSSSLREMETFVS

Point of comparison: `O=C(O)[C@@H]1[C@H]2CC[C@@H](CN1C(=O)N1c3ccccc3Sc3ccccc31)N2C(=O)C(c1ccccc1)c1ccccc1` [Compound C28, (1R,2S,5S)-8-(2,2-diphenylacetyl)-3-(10H-phenothiazine-10-carbonyl)-3,8-diazabicyclo[3.2.1] octane-2-carboxylic acid], IC50 473 nM. Against it:
- O=C(O)[C@H]1[C@@H]2CC[C@H](CN1C(=O)C(c1ccccc1)c1ccccc1)N2C(=O)C(c1ccccc1)c1ccccc1 [Compound C2, (1S,2R,5R)-3,8-bis (2,2-diphenylacetyl)-3,8-diazabicyclo [3.2.1]octane-2-carboxylic acid] — 52-fold lower, 9.11 nM
- O=C(O)[C@@H]1[C@H]2CC[C@@H](CN1C(=O)C(c1ccccc1)c1ccccc1)N2C(=O)C(c1ccccc1)c1ccccc1 [Compound C3, (1R,2S,5S)-3,8-bis (2,2-diphenylacetyl)-3,8-diazabicyclo [3.2.1]octane-2-carboxylic acid] — 34-fold lower, 13.9 nM
- CCN(Cc1csc(Cl)c1)C(=O)N1[C@H]2CC[C@@H]1[C@@H](C(=O)O)N(C(=O)N(c1ccccc1)c1ccccc1)C2 [Compound C274, (1R,2S,5S)-8-(((5-chlorothiophene-3-yl)methyl) (ethyl)carbamoyl)-3-(diphenylcarbamoyl)-3,8-diazabicyclo [3.2.1]octane-2-carboxylic acid] — 24-fold lower, 19.8 nM
- CCN(Cc1cc(C)cs1)C(=O)N1[C@H]2CC[C@@H]1[C@@H](C(=O)O)N(C(=O)N(c1ccccc1)c1ccccc1)C2 [Compound C273, (1R,2S,5S)-3-(diphenylcarbamoyl)-8-(ethyl((4-methylthiophen-2-yl)methyl)carbamoyl)-3,8-diazabicyclo [3.2.1]octane-2-carboxylic acid] — 23-fold lower, 20.9 nM
- O=C(O)[C@@H]1[C@H]2CC[C@@H](CN1C(=O)N(c1ccccc1)c1ccccc1)N2C(=O)N(Cc1ccccc1)c1ccccc1 [Compound C134, (1R,2S,5S)-8-(benzyl(phenyl)carbamoyl)-3-(diphenylcarbamoyl)-3,8-diazabicyclo [3.2.1]octane-2-carboxylic acid] — within 1.5-fold, 322 nM
- O=C(O)[C@@H]1[C@H]2CC[C@@H](CN1C(=O)C(c1ccccc1)c1ccccc1)N2C(=O)CCc1ccccc1 [Compound C222, (1R,2S,5S)-3-(2,2-diphenylacetyl)-8-(3-phenylpropionyl)-3,8-diazabicyclo [3.2.1]octane-2-carboxylic acid] — 40-fold lower, 11.7 nM
- CCCc1ccc(CN(C)C(=O)N2[C@H]3CC[C@@H]2[C@@H](C(=O)O)N(C(=O)N(c2ccccc2)c2ccccc2)C3)cc1 [Compound C236, (1R,2S,5S)-3-(diphenylcarbamoyl)-8-(methyl(4-propylbenzyl)carbamoyl)-3,8-diazabicyclo[3.2.1]octane-2-carboxylic acid] — 77-fold lower, 6.13 nM
- CN(Cc1ccc2ccccc2n1)C(=O)N1[C@H]2CC[C@@H]1[C@@H](C(=O)O)N(C(=O)N(c1ccccc1)c1ccccc1)C2 [Compound C265, (1R,2S,5S)-3-(diphenylcarbamoyl)-8-(methyl (quinoline-2-ylmethyl)carbamoyl)-3,8-diazabicyclo [3.2.1]octane-2-carboxylic acid] — 17-fold lower, 27.2 nM
- CN(Cc1ccccc1F)C(=O)N1[C@H]2CC[C@@H]1[C@@H](C(=O)O)N(C(=O)N(c1ccccc1)c1ccccc1)C2 [Compound C114, (1R,2S,5S)-3-(diphenylcarbamoyl)-8-((2-fluorobenzyl) (methyl)carbamoyl)-3,8-diazabicyclo [3.2.1]octane-2-carboxylic acid] — 18-fold lower, 26.4 nM
- O=C(O)[C@@H]1[C@H]2CC[C@@H](CN1C(=O)N(c1ccccc1)c1ccccc1)N2C(=O)N1CCCC1c1ccc(Cl)cc1 (stereo in doubt) [Compound C144, (1R,2S,5S)-8-((R)-2-(4-chlorphenyl)pyrrolidine-1-carbonyl)-3-(diphenylcarbamoyl)-3,8-diazabicyclo [3.2.1]octane-2-carboxylic acid] — 22-fold lower, 21.6 nM
- Cn1cc(-c2ccccc2C(=O)N2[C@H]3CC[C@@H]2[C@@H](C(=O)O)N(C(=O)N(c2ccccc2)c2ccccc2)C3)cn1 [Compound C241, (1R,2S,5S)-3-(diphenylcarbamoyl)-8-(2-(1-methyl-1H-pyrazole-4-yl)benzoyl)-3,8-diazabicyclo [3.2.1]octane-2-carboxylic acid] — 3-fold lower, 156 nM
- O=C(O)[C@@H]1[C@H]2CC[C@@H](CN1C(=O)N(c1ccccc1)c1ccccc1)N2C(=O)N(Cc1ccccc1)C1CC1 [Compound C153, (1R,2S,5S)-8-(benzyl (cyclopropyl)carbamoyl)-3-(diphenylcarbamoyl)-3,8-diazabicyclo [3.2.1]octane-2-carboxylic acid] — 170-fold lower, 2.78 nM
- C/C(=C\c1ccccc1)C(=O)N1[C@H]2CC[C@@H]1[C@@H](C(=O)O)N(C(=O)C(c1ccccc1)c1ccccc1)C2 [Compound C231, (1R,2S,5S)-3-(2,2-diphenylacetyl)-8-((E)-2-methyl-3-phenylacryloyl)-3,8-diazabicyclo [3.2.1]octane-2-carboxylic acid] — 4.6-fold lower, 103 nM
- CN(Cc1csc(Cl)c1)C(=O)N1[C@H]2CC[C@@H]1[C@@H](C(=O)O)N(C(=O)N(c1ccccc1)c1ccccc1)C2 [Compound C186, (1R,2S,5S)-8-(((5-chlorothiophene-3-yl)methyl) (methyl)carbamoyl)-3-(diphenylcarbamoyl)-3,8-diazabicyclo [3.2.1]octane-2-carboxylic acid] — 7.3-fold lower, 64.6 nM
- O=C(O)[C@@H]1[C@H]2CC[C@@H](CN1C(=O)N(c1ccccc1)c1ccccc1)N2C(=O)N(c1ccc(F)cc1)c1ccc(F)cc1 [Compound C145, (1R,2S,5S)-8-(bis(4-fluorophenyl)carbamoyl)-3-(diphenylcarbamoyl)-3,8-diazabicyclo [3.2.1]octane-2-carboxylic acid] — 4.3-fold lower, 110 nM
- CN(Cc1csc2ccccc12)C(=O)N1[C@H]2CC[C@@H]1[C@@H](C(=O)O)N(C(=O)C(c1ccccc1)c1ccccc1)C2 [Compound C279] — 20-fold lower, 24.2 nM
- CN(Cc1cc2ccccc2s1)C(=O)N1[C@H]2CC[C@@H]1[C@@H](C(=O)O)N(C(=O)N(c1ccccc1)c1ccccc1)C2 [Compound C271] — 33-fold lower, 14.5 nM
- O=C(O)[C@H]1[C@@H]2CC[C@H](CN1C(=O)OCc1ccccc1)N2C(=O)C(c1ccccc1)c1ccccc1 [Compound C75, (1S,2R,5R)-3-((benzyloxy)carbonyl)-8-(2,2-diphenylacetyl)-3,8-diazabicyclo[3. 2.1]octane-2-carboxylic acid] — 8.8-fold lower, 54 nM
- CCc1ccc(CN(C)C(=O)N2[C@H]3CC[C@@H]2[C@@H](C(=O)O)N(C(=O)N(c2ccccc2)c2ccccc2)C3)cc1 [Compound C164, (1R,2S,5S)-3-(diphenylcarbamoyl)-8-((4-ethylbenzyl) (methyl)carbamoyl)-3,8-diazabicyclo[3.2.1] octane-2-carboxylic acid] — 110-fold lower, 4.35 nM
- O=C(O)[C@@H]1[C@@H]2CC[C@@H](CC2Oc2ccc([N+](=O)[O-])cc2)N1C(=O)C(c1ccccc1)c1ccccc1 (stereo partly drawn) [Compound C290, (1S,3S,4S)-2-(2,2-diphenyl-acetyl)-5-(4-nitrophenoxy)-2-azabicyclo [2.2.2]octane-3-carboxylic acid] — within 1.5-fold, 561 nM
- CN(Cc1csc2ccccc12)C(=O)N1[C@H]2CC[C@@H]1[C@@H](C(=O)O)N(C(=O)N(c1ccccc1)c1ccccc1)C2 [Compound C246] — 47-fold lower, 10.1 nM
- O=C(O)[C@@H]1[C@H]2CC[C@@H](CN1C(=O)Oc1ccccc1)N2C(=O)N(c1ccccc1)c1ccccc1 [Compound C69, (1R,2S,5S)-8-(diphenylcarbamoyl)-3-(phenoxycarbonyl)-3,8-diazabicyclo [3.2.1]octane-2-carboxylic acid] — 2.8-fold lower, 170 nM
- C[C@H](c1ccccc1)N(C)C(=O)N1[C@H]2CC[C@@H]1[C@@H](C(=O)O)N(C(=O)N(c1ccccc1)c1ccccc1)C2 [Compound C226, (1R,2S,5S)-3-(diphenylcarbamoyl)-8-(methyl((R)-1-phenylethyl)carbamoyl)-3,8-diazabicyclo [3.2.1]octane-2-carboxylic acid] — 37-fold lower, 12.7 nM
- O=C(O)[C@H]1[C@@H]2CC[C@H](CN1C(=O)C(c1ccccc1)c1ccccc1)N2C(=O)OCc1ccccc1 [Compound C76, (1S,2R,5R)-8-((benzyloxy)carbonyl)-3-(2,2-diphenylacetyl)-3,8-diazabicyclo [3.2.1]octane-2-carboxylic acid] — 6.8-fold lower, 69.7 nM
- CN(Cc1ccc(F)cc1)C(=O)N1[C@H]2CC[C@@H]1[C@@H](C(=O)O)N(C(=O)N(c1ccccc1)c1ccccc1)C2 [Compound C161, (1R,2S,5S)-3-(diphenylcarbamoyl)-8-((4-fluorobenzyl) (methyl)carbamoyl)-3,8-thazabicyclo [3.2.1]octane-2-carboxylic acid] — 16-fold lower, 30.5 nM
- O=C(O)[C@@H]1[C@H]2CC[C@@H](CN1C(=O)C(c1ccccc1)c1ccccc1)N2C(=O)N1c2ccccc2C=Cc2ccccc21 [Compound C9, (1R,2S,5S)-8-(5H-dibenzo[b,f]azepine-5-carbonyl)-3-(2,2-diphenylacetyl)-3,8-diazabicyclo [3.2.1]octane-2-carboxylic acid] — 4.4-fold lower, 107 nM
- O=C(O)[C@@H]1[C@H]2CC[C@@H](CN1C(=O)N(c1ccccc1)c1ccccc1)N2c1nccc(-c2ccccc2)n1 [Compound C210, (1R,2S,5S)-3-(diphenylcarbamoyl)-8-(4-phenylpyrimidine-2-yl)-3,8-diazabicyclo[3.2.1] octane-2-carboxylic acid] — 9.6-fold lower, 49.5 nM
